Assay results: ChEMBL document CHEMBL1955749, “Synthesis and anti-influenza activity of aminoalkyl rupestonates” (Bioorg Med Chem Lett, 2012)
The source made the active and inactive calls. The calls are words filed in the database; no cut-off is given here.

Assays:
[1] = Selectivity index, ratio of TC50 for MDCK cells to IC50 for influenza A virus H1N1; assay type: toxicity, cell-based; details: dog, read-out: Selectivity Index
Influenza A virus [2] = assay: Antiinfluenza activity against influenza A virus H1N1 infected in MDCK cells assessed as inhibition of virus-induced cytopathic effect after 36 hrs; assay type: functional, organism-based
[3] = Cytotoxicity against MDCK cells; assay type: cell-based, Canis lupus familiaris; details: dog, read-out: TC50 (the source's name)
Influenza A virus [4] = assay: Antiinfluenza activity against influenza A virus H3N2 infected in MDCK cells assessed as inhibition of virus-induced cytopathic effect after 36 hrs; assay type: functional, organism-based
Influenza B virus [5] = assay: Antiinfluenza activity against influenza B virus infected in MDCK cells assessed as inhibition of virus-induced cytopathic effect after 36 hrs; assay type: functional, organism-based
Influenza B virus [6] = assay: Antiinfluenza activity against influenza B virus; assay type: functional, organism-based
Influenza A virus [7] = assay: Antiinfluenza activity against influenza A virus H3N2; assay type: functional, organism-based
Influenza A virus [8] = assay: Antiinfluenza activity against influenza A virus H1N1; assay type: functional, organism-based
[9] = Selectivity index, ratio of TC50 for MDCK cells to IC50 for influenza A virus H3N2; assay type: toxicity, cell-based; details: dog, read-out: Selectivity Index
Influenza A virus [10] = assay: Antiinfluenza activity against influenza A virus H3N2 infected in MDCK cells assessed as inhibition of virus-induced cytopathic effect at 0.15 to 1.37 ug/ml after 36 hrs; assay type: functional, organism-based
[11] = Selectivity index, ratio of TC50 for MDCK cells to IC50 for influenza B virus; assay type: toxicity, cell-based; details: dog, read-out: Selectivity Index
Influenza A virus [12] = assay: Antiinfluenza activity against influenza A virus; assay type: functional, organism-based

| Structure (SMILES) | selectivity ratio [1] | IC50 (Influenza A virus [2]) | CC50 [3] | IC50 (Influenza A virus [4]) | IC50 (Influenza B virus [5]) | IC50 (Influenza B virus [6]) | IC50 (Influenza A virus [7]) | IC50 (Influenza A virus [8]) | selectivity ratio [9] | inhibition (Influenza A virus [10]) | selectivity ratio [11] | IC50 (Influenza A virus [12]) |
| --- | --- | --- | --- | --- | --- | --- | --- | --- | --- | --- | --- | --- |
| C=C(C(=O)OCCCCCCCCN1CCN(c2ccccc2)CC1)[C@@H]1CC[C@H](C)[C@@H]2CC(=O)C(C)=C2C1 | 3.6 | 92.6 µM | 333 µM | > 160 µM | > 160 µM | – | – | – | – | – | – | – |
| C=C(C(=O)OCCCBr)[C@@H]1CC[C@H](C)[C@@H]2CC(=O)C(C)=C2C1 | – | > 101 µM | 436 µM | > 101 µM | > 101 µM | – | – | – | – | – | – | – |
| C=C(C(=O)OCCCl)[C@@H]1CC[C@H](C)[C@@H]2CC(=O)C(C)=C2C1 | – | – | – | – | – | 358 µM | 17.2 µM | 27.8 µM | – | – | – | – |
| C=C(C(=O)OCCCCCCCCCCN1CCN(c2ccccc2)CC1)[C@@H]1CC[C@H](C)[C@@H]2CC(=O)C(C)=C2C1 | 188 | 2.4 µM | 456 µM | 94 µM | > 152 µM | – | – | – | 4.9 | Active | – | – |
| C=C(C(=O)O)[C@@H]1CC[C@H](C)[C@@H]2CC(=O)C(C)=C2C1 [PECHUELOIC ACID] | – | > 1340 µM | 4650 µM | 25.8 µM | > 4030 µM | – | – | – | 181 | – | – | – |
| C=C(C(=O)OCCCCCBr)[C@@H]1CC[C@H](C)[C@@H]2CC(=O)C(C)=C2C1 | 2.8 | 19.3 µM | 54 µM | 19.3 µM | > 31.2 µM | – | – | – | 2.8 | – | – | – |
| C=C(C(=O)OCCCCCCn1cncn1)[C@@H]1CC[C@H](C)[C@@H]2CC(=O)C(C)=C2C1 | 2.48 | 48.2 µM | 120 µM | 14.9 µM | > 31 µM | – | – | – | 8 | – | – | – |
| C=C(C(=O)OCCCCCN1CCN(c2ccccc2)CC1)[C@@H]1CC[C@H](C)[C@@H]2CC(=O)C(C)=C2C1 | 5.6 | 20 µM | 112 µM | > 25.7 µM | > 25.8 µM | – | – | – | – | – | – | – |
| C=C(C(=O)OCCCN1CCN(c2ccccc2)CC1)[C@@H]1CC[C@H](C)[C@@H]2CC(=O)C(C)=C2C1 | 2.7 | 63.9 µM | 171 µM | 57.1 µM | > 11.2 µM | – | – | – | 3 | – | – | – |
| C=C(C(=O)OCCN1CCN(C)CC1)[C@@H]1CC[C@H](C)[C@@H]2CC(=O)C(C)=C2C1 | 1.8 | 129 µM | 231 µM | > 33 µM | > 33 µM | – | – | – | – | – | – | – |
| C=C(C(=O)OCCCCCN1CCN(C)CC1)[C@@H]1CC[C@H](C)[C@@H]2CC(=O)C(C)=C2C1 | 12.1 | 17.1 µM | 207 µM | 20.6 µM | 20.6 µM | – | – | – | 10.1 | – | 10.1 | – |
| C=C(C(=O)OCCCCCCCCCCN1CCN(C)CC1)[C@@H]1CC[C@H](C)[C@@H]2CC(=O)C(C)=C2C1 | 47.6 | 3.7 µM | 177 µM | 5.2 µM | > 25.4 µM | – | – | – | 34 | Active | – | – |
| CCOC(=O)C1=C[C@@H](OC(CC)CC)[C@H](NC(C)=O)[C@@H](N)C1 [OSELTAMIVIR PHOSPHATE] | 81.3 | 15.5 µM | 1260 µM | 1.1 µM | > 500 µM | – | – | – | 1140 | – | – | – |
| C=C(C(=O)OCCCCCCCCn1cncn1)[C@@H]1CC[C@H](C)[C@@H]2CC(=O)C(C)=C2C1 | 28 | 7.2 µM | 202 µM | 5.2 µM | 3.2 µM | – | – | – | 38.8 | – | 62.9 | – |
| C=C(C(=O)OCCCCCCCCCCn1cncn1)[C@@H]1CC[C@H](C)[C@@H]2CC(=O)C(C)=C2C1 | 65 | 0.42 µM | 27.1 µM | 0.97 µM | 11.3 µM | – | – | – | 28.1 | Active | 2.4 | – |
| C=C(C(=O)OCCCCCCN1CCN(c2ccccc2)CC1)[C@@H]1CC[C@H](C)[C@@H]2CC(=O)C(C)=C2C1 | – | > 56.5 µM | 394 µM | > 56.5 µM | > 56.5 µM | – | – | – | – | – | – | – |
| C=C(C(=O)OCCN1CCN(c2ccccc2)CC1)[C@@H]1CC[C@H](C)[C@@H]2CC(=O)C(C)=C2C1 | 9 | 49.4 µM | 445 µM | 49.4 µM | 49.4 µM | – | – | – | 9 | – | 9 | – |

| Structure (SMILES) | selectivity ratio [1] | IC50 (Influenza A virus [2]) | CC50 [3] | IC50 (Influenza A virus [4]) | IC50 (Influenza B virus [5]) | IC50 (Influenza B virus [6]) | IC50 (Influenza A virus [7]) | IC50 (Influenza A virus [8]) | selectivity ratio [9] | inhibition (Influenza A virus [10]) | selectivity ratio [11] | IC50 (Influenza A virus [12]) |
| --- | --- | --- | --- | --- | --- | --- | --- | --- | --- | --- | --- | --- |
| C=C(C(=O)OCCCCCCN1CCN(C)CC1)[C@@H]1CC[C@H](C)[C@@H]2CC(=O)C(C)=C2C1 | – | > 9.6 µM | 86 µM | > 9.6 µM | > 9.6 µM | – | – | – | – | – | – | – |
| C=C(C(=O)OCCCCN1CCN(c2ccccc2)CC1)[C@@H]1CC[C@H](C)[C@@H]2CC(=O)C(C)=C2C1 | 5.2 | 79.8 µM | 415 µM | > 79.8 µM | > 79.8 µM | – | – | – | – | – | – | – |
| C=C(C(=O)OCCCCCCBr)[C@@H]1CC[C@H](C)[C@@H]2CC(=O)C(C)=C2C1 | 11.8 | 39.6 µM | 469 µM | 52.1 µM | 52.1 µM | – | – | – | 9 | – | 9 | – |
| C=C(C(=O)OCCCN1CCN(C)CC1)[C@@H]1CC[C@H](C)[C@@H]2CC(=O)C(C)=C2C1 | – | > 95.5 µM | 667 µM | > 95.5 µM | > 95.5 µM | – | – | – | – | – | – | – |
| C=C(C(=O)OCCn1cncn1)[C@@H]1CC[C@H](C)[C@@H]2CC(=O)C(C)=C2C1 | 2.68 | 83.8 µM | 224 µM | 74.9 µM | > 8 µM | – | – | – | 3 | – | – | – |
| C=C(C(=O)OCCCn1cncn1)[C@@H]1CC[C@H](C)[C@@H]2CC(=O)C(C)=C2C1 | 13 | 24 µM | 311 µM | 34.6 µM | > 34.6 µM | – | – | – | 9 | – | – | – |
| C=C(C(=O)OCCCCCCCCN1CCN(C)CC1)[C@@H]1CC[C@H](C)[C@@H]2CC(=O)C(C)=C2C1 | – | > 26.9 µM | 188 µM | > 26.9 µM | > 26.9 µM | – | – | – | – | – | – | – |
| NC(=O)c1ncn([C@@H]2O[C@H](CO)[C@@H](O)[C@H]2O)n1 [RIBAVIRIN] | 666 | 1.9 µM | 1280 µM | 3.9 µM | 14.7 µM | – | – | – | 329 | – | 86.9 | – |
| C=C(C(=O)OCCCCn1cncn1)[C@@H]1CC[C@H](C)[C@@H]2CC(=O)C(C)=C2C1 | 6.7 | 57.6 µM | 386 µM | 42.9 µM | 77.5 µM | – | – | – | 9 | – | 5 | – |
| C=C(C(=O)OCCCCN1CCN(C)CC1)[C@@H]1CC[C@H](C)[C@@H]2CC(=O)C(C)=C2C1 | 62.8 | 10.3 µM | 644 µM | 71.5 µM | > 92.1 µM | – | – | – | 9 | – | – | – |
| C=C(C(=O)OCCCCBr)[C@@H]1CC[C@H](C)[C@@H]2CC(=O)C(C)=C2C1 | 5.6 | 75.2 µM | 420 µM | 75.2 µM | 67.2 µM | – | – | – | 5.6 | – | 6.2 | – |
| C=C(C(=O)OCCCCCCCCBr)[C@@H]1CC[C@H](C)[C@@H]2CC(=O)C(C)=C2C1 | 11.8 | 12.4 µM | 146 µM | 14.1 µM | > 28.2 µM | – | – | – | 10.4 | – | – | – |
| C=C(C(=O)OCCCCCn1cncn1)[C@@H]1CC[C@H](C)[C@@H]2CC(=O)C(C)=C2C1 | 90.8 | 7.4 µM | 672 µM | 17.3 µM | 17.3 µM | – | – | – | 38.9 | – | 38.9 | – |
| C=C(C(=O)OCCCCCCCCCCBr)[C@@H]1CC[C@H](C)[C@@H]2CC(=O)C(C)=C2C1 | 20.5 | 6.7 µM | 138 µM | 16.4 µM | > 26.5 µM | – | – | – | 8.4 | Active | – | – |
| C=C(C(=O)OCCBr)[C@@H]1CC[C@H](C)[C@@H]2CC(=O)C(C)=C2C1 | – | > 314 µM | 1360 µM | > 314 µM | > 314 µM | – | – | – | – | – | – | – |
| C=C(C(=O)O)[C@@H]1CC[C@H](C)[C@@H]2CC(=O)C(C)=C2C1c1ccc(C(C)(C)C)cc1 (stereo partly specified) | – | – | – | – | – | – | – | – | – | – | – | 0.5 µM |
